Experimental findings from patent US20240002374A1, “5-MEMBERED HETEROARYLAMINOSULFONAMIDES FOR TREATING CONDITIONS MEDIATED BY DEFICIENT CFTR ACTIVITY” (Genzyme Corporation, priority 2019, published 2024) are described below.

T1 sequence (P13569 with tags, fused parts or gaps DEL508-508): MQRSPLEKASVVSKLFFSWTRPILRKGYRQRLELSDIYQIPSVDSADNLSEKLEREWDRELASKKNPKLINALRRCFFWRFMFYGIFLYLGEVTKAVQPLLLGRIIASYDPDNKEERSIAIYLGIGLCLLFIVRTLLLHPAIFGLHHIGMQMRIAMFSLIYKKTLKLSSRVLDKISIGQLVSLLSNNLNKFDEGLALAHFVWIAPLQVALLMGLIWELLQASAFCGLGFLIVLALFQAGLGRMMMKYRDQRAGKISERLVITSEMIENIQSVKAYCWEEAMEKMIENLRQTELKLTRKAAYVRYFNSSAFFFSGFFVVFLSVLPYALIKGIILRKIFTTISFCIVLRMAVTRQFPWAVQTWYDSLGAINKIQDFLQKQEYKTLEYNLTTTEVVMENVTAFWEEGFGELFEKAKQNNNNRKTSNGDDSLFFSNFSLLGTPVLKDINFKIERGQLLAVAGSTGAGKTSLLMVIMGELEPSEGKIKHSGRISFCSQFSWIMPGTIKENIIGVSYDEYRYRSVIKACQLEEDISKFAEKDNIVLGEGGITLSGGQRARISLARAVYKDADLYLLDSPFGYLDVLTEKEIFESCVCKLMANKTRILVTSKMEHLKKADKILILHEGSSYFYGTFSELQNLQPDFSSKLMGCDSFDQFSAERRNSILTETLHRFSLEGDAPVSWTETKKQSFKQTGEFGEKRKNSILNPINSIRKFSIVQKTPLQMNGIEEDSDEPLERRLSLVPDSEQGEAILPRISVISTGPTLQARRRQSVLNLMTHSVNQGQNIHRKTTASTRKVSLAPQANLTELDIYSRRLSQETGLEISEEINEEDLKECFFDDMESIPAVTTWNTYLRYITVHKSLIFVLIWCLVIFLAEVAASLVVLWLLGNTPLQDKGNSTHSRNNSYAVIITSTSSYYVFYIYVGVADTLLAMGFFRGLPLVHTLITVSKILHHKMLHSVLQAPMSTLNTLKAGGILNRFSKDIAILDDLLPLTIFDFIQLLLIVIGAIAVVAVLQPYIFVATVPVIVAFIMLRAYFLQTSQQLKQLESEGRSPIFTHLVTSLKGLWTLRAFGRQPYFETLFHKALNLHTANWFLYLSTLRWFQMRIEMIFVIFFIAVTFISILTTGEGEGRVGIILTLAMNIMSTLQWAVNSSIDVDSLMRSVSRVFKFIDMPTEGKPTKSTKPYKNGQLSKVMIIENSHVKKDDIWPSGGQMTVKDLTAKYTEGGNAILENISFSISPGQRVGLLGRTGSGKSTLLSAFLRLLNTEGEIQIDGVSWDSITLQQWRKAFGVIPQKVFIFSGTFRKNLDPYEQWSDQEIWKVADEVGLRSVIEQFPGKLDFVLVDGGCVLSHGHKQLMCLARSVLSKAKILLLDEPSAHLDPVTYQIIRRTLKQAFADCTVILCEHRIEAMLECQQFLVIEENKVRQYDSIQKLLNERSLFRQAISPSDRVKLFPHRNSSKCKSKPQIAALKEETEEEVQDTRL

The experiment addresses T1, CFTR (primary human bronchial epithelial cells from a ΔF508 homozygous CF donor, CF-HBE cells) (Homo sapiens, UniProt P13569, DEL508-508).
T1 construct: Primary human bronchial epithelial cells from a ΔF508 homozygous CF donor; host or cells: primary human bronchial epithelial cells (CF-HBE) from a ΔF508 homozygous CF donor
The experiment in a line: TECC24 recording of CFTR-mediated transepithelial chloride transport (TECC24 AUC fold over DMSO @ 3 μM). The experiment is classed as cell-based. As to conditions: 3 uM test agent; CF-HBE cells (ΔF508 homozygous) incubated 48 h; ratio of test agent AUC of forskolin-stimulated IEQ to vehicle (DMSO) AUC. As to the method: Example 510: TECC24 AUC Fold Over DMSO @ 3 μM
The effects of a test agent on CFTR-mediated transepithelial chloride transport was measured using TECC24 recording analysis. Test agents were solubilized in DMSO. Solubilized test agents were mixed with incubation medium containing DMEM/F12, Ultroser G (2%; Crescent Chemical, catalog #67042), Hyclone Fetal Clone H (2%; GE Healthcare, catalog #SH30066.02), bovine brain extract (0.25%; Lonza, catalog #CC-4098), insulin (2.5 μg/mL), IL-13 (10 ng/mL), hydrocortisone (20 nM), transferrin (2.5 μg/mL), triiodothyronine (500 nM), ethanolamine (250 nM), epinephrine (1.5 μM), phosphoethanolamine (250 nM), and retinoic acid (10 nM). Primary human bronchial epithelial cells from a ΔF508 homozygous CF donor (CF-HBE cells; from University of North Carolina Cystic Fibrosis Tissue Procurement Center), grown on Transwell HTS 24-well cell culture inserts (Costar, catalog #3378), were exposed to test agents or controls dissolved in incubation medium. The CF-HBE cells were cultured at 36.5° C. for 48 h before TECC24 recordings were performed in the presence or absence of test agent, a positive control or vehicle (DMSO).
Following incubation, the transwell cell culture inserts containing the test agent or control-treated CF-HBE cells were loaded onto a TECC24 apparatus (TECC v7 or MTECC v2; EP Design) to record the transepithelial voltage (VT) and resistance (TEER) using 4 AgCl electrodes per well configured in current-clamp mode. The apical and basolateral bath solutions both contained (in mM) 140 NaCl, 5 KCl, 2 CaCl2), 1 MgCl2, 10 Hepes, and 10 glucose (adjusted to pH 7.4 with NaOH) […]. To inhibit basal Na+ absorption, the ENaC inhibitor benzamil (10 μM) was added to the bath. Then, the adenylate cyclase activator, forskolin (10 μM), was added to the bath to activate CFTR. The forskolin-stimulated Cl− transport was halted by addition of bumetanide (20 μM), an inhibitor of the basolateral chloride co-transporter NKCC1, to the bath to confirm that the detected signal was chloride dependent. VT and TEER recordings were digitally acquired at routine intervals using TECC or MTECC software (EP Design). VT and TEER were transformed into equivalent transepithelial Cl− current (IEQ), and the Area Under the Curve (AUC) of the IEQ time course between forskolin and bumetanide addition is generated using Excel (Microsoft). Efficacy is expressed as the ratio of the test agent AUC divided by vehicle AUC. EC50s based on AUC are generated using the non-linear regression log(agonist) vs. response function in Prism software (GraphPad) with Hill Slope fixed=1.
If a test agent increased the AUC of the forskolin-stimulated IEQ relative to vehicle in CF-HBE cells, and this increase was inhibited by bumetanide, then the test agent was considered a CFTR corrector.
Take `Cc1cccc(C)c1-c1nc(NS(=O)(=O)c2cccnc2N)sc1-c1cc(F)cc(OCCC(C)(C)C)c1` [Example 35, 2-Amino-N-(5-(3-(3,3-dimethylbutoxy)-5-fluorophenyl)-4-(2,6-dimethylphenyl)thiazol-2-yl)pyridine-3-sulfonamide]: the “TECC AUC vs. DMSO @ 3 uM” value is “A (“A” refers to AUC > 5)”.

Consider `CC(C)c1ccccc1-c1nc(NS(=O)(=O)c2cccc(N[C@H](C(=O)O)C(C)(C)C)n2)sc1-c1cccc(OCCC(C)(C)C)c1` [Example 36, (S)-2-((6-(N-(5-(3-(3,3-Dimethylbutoxy)phenyl)-4-(2-isopropylphenyl)thiazol-2-yl)sulfamoyl)pyridin-2-yl)amino)-3,3-dimethylbutanoic Acid], for which the “TECC AUC vs. DMSO @ 3 uM” value was “A (“A” refers to AUC > 5)”.

Turning to `Cc1cccc(C)c1-c1nc(NS(=O)(=O)c2ccnc(N)c2)sc1N1CCOC(CCCC(C)(C)C)C1` (centres unmarked) [Example 37, 2-Amino-N-(5-(2-(4,4-dimethylpentyl)morpholino)-4-(2,6-dimethylphenyl)thiazol-2-yl)pyridine-4-sulfonamide], the “TECC AUC vs. DMSO @ 3 uM” value was “A (“A” refers to AUC > 5)”.

On to `Cc1cccc(C)c1-c1nc(NS(=O)(=O)c2cccc(N)c2F)sc1N1CCOC2(CCC(C)(C)C2)C1` (centres unmarked) [Example 38, 3-Amino-N-(5-(2,2-dimethyl-6-oxa-9-azaspiro[4.5]decan-9-yl)-4-(2,6-dimethylphenyl)thiazol-2-yl)-2-fluorobenzenesulfonamide], for which the “TECC AUC vs. DMSO @ 3 uM” value is “A (“A” refers to AUC > 5)”.

On to `CC(C)c1ccccc1-c1nc(NS(=O)(=O)c2cccc(N)c2F)sc1N1CCOC2(CCC(C)(C)C2)C1` (centres unmarked) [Example 39, 3-Amino-N-(5-(2,2-dimethyl-6-oxa-9-azaspiro[4.5]decan-9-yl)-4-(2-isopropylphenyl)thiazol-2-yl)-2-fluorobenzenesulfonamide], for which the “TECC AUC vs. DMSO @ 3 uM” value was “B (“B” refers to AUC 2-5)”.

Consider `CC(C)(C)CCCOc1ccn(-c2sc(NS(=O)(=O)c3ccccc3)nc2-c2ccccc2C(F)(F)F)n1` [Example 40, N-(5-(3-((4,4-Dimethylpentyl)oxy)-1H-pyrazol-1-yl)-4-(2-(trifluoromethyl)phenyl)thiazol-2-yl)benzenesulfonamide], for which the “TECC AUC vs. DMSO @ 3 uM” value was “A (“A” refers to AUC > 5)”.

On to `Cc1cccc(C)c1-c1nc(NS(=O)(=O)c2ccsc2)sc1-c1cccc(OCC(C)(C)C)c1` [Example 41, N-(4-(2,6-Dimethylphenyl)-5-(3-(neopentyloxy)phenyl)thiazol-2-yl)thiophene-3-sulfonamide], for which the “TECC AUC vs. DMSO @ 3 uM” value is “A (“A” refers to AUC > 5)”.

As for `Cc1cccc(C)c1-c1nc(NS(=O)(=O)c2ccc(F)c(N)c2)sc1-c1cc(F)cc(OCCC(C)(C)C)c1` [Example 42, 3-Amino-N-(5-(3-(3,3-dimethylbutoxy)-5-fluorophenyl)-4-(2,6-dimethylphenyl)thiazol-2-yl)-4-fluorobenzenesulfonamide], the “TECC AUC vs. DMSO @ 3 uM” value was “B (“B” refers to AUC 2-5)”.

Take `Cc1nn(C)cc1S(=O)(=O)Nc1nc(-c2ccccc2C(C)C)c(-c2cccc([C@H]3CC[C@@H](OC(F)(F)F)C3)c2)s1` [Example 46A1, N-(4-(2-Isopropylphenyl)-5-(3-((1S,3R)-3-(trifluoromethoxy)cyclopentyl)phenyl)thiazol-2-yl)-1,3-dimethyl-1H-pyrazole-4-sulfonamide]: the “TECC AUC vs. DMSO @ 3 uM” value is reported as “C (“C” refers to AUC < 2)”.

`Cc1nn(C)cc1S(=O)(=O)Nc1nc(-c2ccccc2C(C)C)c(-c2cccc([C@H]3CC[C@H](OC(F)(F)F)C3)c2)s1` [Example 46A2, N-(4-(2-Isopropylphenyl)-5-(3-((1S,3S)-3-(trifluoromethoxy)cyclopentyl)phenyl)thiazol-2-yl)-1,3-dimethyl-1H-pyrazole-4-sulfonamide]: the “TECC AUC vs. DMSO @ 3 uM” value is given as “B (“B” refers to AUC 2-5)”.

With `Cc1nn(C)cc1S(=O)(=O)Nc1nc(-c2ccccc2C(C)C)c(-c2cccc([C@@H]3CC[C@H](OC(F)(F)F)C3)c2)s1` [Example 46B1, N-(4-(2-Isopropylphenyl)-5-(3-((1R,3S)-3-(trifluoromethoxy)cyclopentyl)phenyl)thiazol-2-yl)-1,3-dimethyl-1H-pyrazole-4-sulfonamide], the “TECC AUC vs. DMSO @ 3 uM” value is “A (“A” refers to AUC > 5)”.

Take `Cc1nn(C)cc1S(=O)(=O)Nc1nc(-c2ccccc2C(C)C)c(-c2cccc([C@@H]3CC[C@@H](OC(F)(F)F)C3)c2)s1` [Example 46B2, N-(4-(2-Isopropylphenyl)-5-(3-((1R,3R)-3-(trifluoromethoxy)cyclopentyl)phenyl)thiazol-2-yl)-1,3-dimethyl-1H-pyrazole-4-sulfonamide]: the “TECC AUC vs. DMSO @ 3 uM” value is “C (“C” refers to AUC < 2)”.

`Nc1cccc(S(=O)(=O)Nc2nc(-c3ccccc3C(F)(F)F)c(-c3cccc([C@@H]4CC[C@H](OC(F)(F)F)C4)c3)s2)c1F` [Example 47B1, 3-Amino-2-fluoro-N-(5-(3-((1R,3S)-3-(trifluoromethoxy)cyclopentyl)phenyl)-4-(2-(trifluoromethyl)phenyl)thiazol-2-yl)benzenesulfonamide]: the “TECC AUC vs. DMSO @ 3 uM” value is given as “A (“A” refers to AUC > 5)”.

Take `Nc1cccc(S(=O)(=O)Nc2nc(-c3ccccc3C(F)(F)F)c(-c3cccc([C@@H]4CC[C@@H](OC(F)(F)F)C4)c3)s2)c1F` [Example 47B2, 3-Amino-2-fluoro-N-(5-(3-((1R,3R)-3-(trifluoromethoxy)cyclopentyl)phenyl)-4-(2-(trifluoromethyl)phenyl)thiazol-2-yl)benzenesulfonamide]: the “TECC AUC vs. DMSO @ 3 uM” value is “C (“C” refers to AUC < 2)”.

`CC(C)c1ccccc1-c1nc(NS(=O)(=O)c2cccc(N)c2F)sc1-c1cccc([C@H]2CC[C@@H](OC(F)(F)F)C2)c1` [Example 48A1, 3-Amino-2-fluoro-N-(4-(2-isopropylphenyl)-5-(3-((1S,3R)-3-(trifluoromethoxy)cyclopentyl)phenyl)thiazol-2-yl)benzenesulfonamide]: the “TECC AUC vs. DMSO @ 3 uM” value was “A (“A” refers to AUC > 5)”.

As for `CC(C)c1ccccc1-c1nc(NS(=O)(=O)c2cccc(N)c2F)sc1-c1cccc([C@H]2CC[C@H](OC(F)(F)F)C2)c1` [Example 48A2, 3-Amino-2-fluoro-N-(4-(2-isopropylphenyl)-5-(3-((1S,3S)-3-(trifluoromethoxy)cyclopentyl)phenyl)thiazol-2-yl)benzenesulfonamide], the “TECC AUC vs. DMSO @ 3 uM” value is given as “A (“A” refers to AUC > 5)”.

For the molecule `CC(C)c1ccccc1-c1nc(NS(=O)(=O)c2cccc(N)c2F)sc1-c1cccc([C@@H]2CC[C@H](OC(F)(F)F)C2)c1` [Example 48B1, 3-Amino-2-fluoro-N-(4-(2-isopropylphenyl)-5-(3-((1R,3S)-3-(trifluoromethoxy)cyclopentyl)phenyl)thiazol-2-yl)benzenesulfonamide], the “TECC AUC vs. DMSO @ 3 uM” value is “B (“B” refers to AUC 2-5)”.

Regarding `CC(C)c1ccccc1-c1nc(NS(=O)(=O)c2cccc(N)c2F)sc1-c1cccc([C@@H]2CC[C@@H](OC(F)(F)F)C2)c1` [Example 48B2, 3-Amino-2-fluoro-N-(4-(2-isopropylphenyl)-5-(3-((1R,3R)-3-(trifluoromethoxy)cyclopentyl)phenyl)thiazol-2-yl)benzenesulfonamide], the “TECC AUC vs. DMSO @ 3 uM” value was “B (“B” refers to AUC 2-5)”.

Regarding `Cc1cccc(C)c1-c1nc(NS(=O)(=O)c2cccc(N(C)C)n2)sc1-c1cc(F)cc(OCCC(C)(C)C)c1` [Example 240, 6-(dimethylamino)-N-[5-[3-(3,3-dimethylbutoxy)-5-fluorophenyl]-4-(2,6-dimethylphenyl)-1,3-thiazol-2-yl]pyridine-2-sulfonamide], the “TECC AUC vs. DMSO @ 3 uM” value was “A (“A” refers to AUC > 5)”.

Regarding `Cc1cccc(C)c1-c1nc(NS(=O)(=O)c2cccc(S(C)(=O)=O)c2)sc1-c1cc(F)cc(OCCC(C)(C)C)c1` [Example 242, N-[5-[3-(3,3-dimethylbutoxy)-5-fluorophenyl]-4-(2,6-dimethylphenyl)-1,3-thiazol-2-yl]-3-methylsulfonylbenzenesulfonamide], the “TECC AUC vs. DMSO @ 3 uM” value is reported as “A (“A” refers to AUC > 5)”.
